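A five-concentration, 48-hour dose response in 96-well plates underlies each endpoint, interpolated linearly between surrounding concentrations. GI50: concentration for 50% inhibition of growth.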 Active and inactive are the calls of the source. No stated cut-off is given here; in the data, active = GI50 up to about 1.1 µM and inactive = higher.
Legend:
Test in all cases: NCI-60 cell line screen, 48 h
[1] = tested on: KM12
[2] = tested on: LOX IMVI
[3] = tested on: IGROV-1
[4] = tested on: RPMI-8226
[5] = tested on: A549
[6] = tested on: K562
[7] = tested on: SN12C
[8] = tested on: RXF 393
[9] = tested on: NCI-H460
[10] = tested on: COLO 205
[11] = tested on: HCT-116
[12] = tested on: SK-MEL-28
[13] = tested on: OVCAR-5
[14] = tested on: UACC-62
[15] = tested on: UACC-257
[16] = tested on: SK-MEL-5
[17] = tested on: EKVX
[18] = tested on: SK-MEL-2
[19] = tested on: UO-31
[20] = tested on: ACHN

Measured: GI50

O=C(N/N=C/c1ccccc1)c1c(F)c(F)c(F)c(F)c1F
inactive: [1] 86.1 µM | [2] > 100 µM | [3] > 100 µM | [4] > 100 µM | [5] > 100 µM | [6] > 100 µM | [7] > 100 µM | [8] > 100 µM | [9] > 100 µM | [10] > 100 µM | [11] 56 µM | [12] > 100 µM | [13] > 100 µM | [14] 33.3 µM | [15] > 100 µM | [16] > 100 µM | [17] > 100 µM | [18] > 100 µM | [19] > 100 µM | [20] > 100 µM

O=C1c2ccccc2C(=O)N1/N=C1/SC(=N\c2ccccc2)/C(=N/c2ccccc2)N1c1ccccc1
inactive: [1] > 38.8 µM | [2] > 100 µM | [3] > 78.7 µM | [4] > 21.1 µM | [5] > 21 µM | [6] > 60 µM | [7] > 39.3 µM | [8] 4.47 µM | [9] > 61.8 µM | [10] > 85.3 µM | [11] 38.6 µM | [12] > 35.1 µM | [13] > 100 µM | [14] > 95.5 µM | [15] > 100 µM | [16] > 39 µM | [17] > 76.9 µM | [18] > 55.2 µM | [19] 25.7 µM | [20] > 66.4 µM

O=C(O)CN(CC(=O)O)C(C(=O)O)c1ccccc1 (stereo not given)
inactive: [1] > 100 µM | [2] > 100 µM | [3] > 100 µM | [4] > 100 µM | [5] > 100 µM | [6] > 100 µM | [7] > 100 µM | [8] > 100 µM | [9] > 100 µM | [10] > 100 µM | [11] > 100 µM | [12] > 100 µM | [13] > 100 µM | [14] > 100 µM | [15] > 100 µM | [16] > 100 µM | [17] > 100 µM | [18] > 100 µM | [19] > 100 µM | [20] > 100 µM

Cc1cc2cc3c(C)cc(=O)oc3c(C)c2o1 [TRIOXSALEN]
inactive: [1] > 100 µM | [2] > 100 µM | [3] > 100 µM | [4] > 100 µM | [5] > 100 µM | [6] > 100 µM | [7] > 100 µM | [8] > 100 µM | [9] > 100 µM | [10] > 100 µM | [11] > 100 µM | [12] > 100 µM | [13] > 100 µM | [14] > 100 µM | [15] > 100 µM | [16] > 100 µM | [17] 90.6 µM | [18] > 100 µM | [19] > 100 µM | [20] > 100 µM
